According to patent US20170360664A1, “PERSONAL CARE COMPOSITIONS” (Colgate-Palmolive Company, priority 2015, published 2017):

Experiment: Clarity, pH and aging stability of aqueous SnF2/STPP solutions
Assay type: physicochemical
Settings: 2% stannous fluoride solution without STPP
Procedure: The solutions are then further mixed at room temperature until a clear solution forms. All of the solutions contain 2% SnF2.
The solutions with a P:Sn molar ratio spanning from 1 to 15 containing 2% SnF2 are aged overnight at room temperature.
A different set of solutions with a P:Sn molar ratio of 2 and 5 are placed in a 50° C. oven for eight weeks.

[F][Sn][F] [stannous fluoride]
Appearance after dissolution: precipitate almost immediately after dissolution
